The text below walks through data of patent US9938335B2, “Glucagon and GLP-1 co-agonist compounds” (Eli Lilly and Company, priority 2015, dated 2018).

For assay [1], the system named is STZ-treated DIO mice (C57BL/6). Description: OGTT in Streptozotocin (STZ)-treated DIO mice. Type of assay: in vivo, mouse. As to conditions: for Glucose AUC (% of vehicle): male STZ mice, OGTT (2 g/kg) 16 hours post injection. The procedure: STZ-treated mouse model is a model of early diabetes. Five to six months old male DIO mice (C57BL/6) from Taconic Biosciences are used in this study. Animals are individually housed in a temperature-controlled (24° C.) facility with a 12 hour light/dark cycle (lights on 6:00), and free access to food and water. After two weeks acclimation to the facility, mice are injected intraperitoneally with 50 mg/kg of STZ on Tuesday and Friday. Two weeks post the injection, animals with glucose levels between 180-300 mg/dL at 09:00 are selected for the OGTT study. The day before the study, animals are randomized into groups based on body weight and their glucose levels. Animals are treated with vehicle or testing articles by subcutaneous injection just prior to food removal overnight (16:00). The following morning at 08:00, 16 hours post compound injection, blood samples are taken to measure time zero glucose. Animals are given an oral dose of glucose of 2 g/kg. Glucose is measured 15, 30, 60, and 120 minutes post the oral glucose challenge. Statistics are analyzed using ANOVA with Dunnett's comparison by JMP 6. Significance is denoted at p≤0.05 vs. vehicle.

The next assay has as its system DIO mice (C57BL/6). Description: Oral Glucose Tolerance Test (OGTT) in DIO mice. Type of assay: in vivo, mouse. The following applies: for Glucose AUC (% of vehicle): male DIO mice, OGTT (2 g/kg) 16 hours post injection. The procedure: Diet-induced obese (DIO) mouse model is a model of insulin resistance. Five to six months old male DIO mice (C57BL/6) from Taconic Biosciences are used in this study. Animals are individually housed in a temperature-controlled (24° C.) facility with a 12 hour light/dark cycle (lights on 06:00), and free access to food and water. The acclimation period to the facility is two weeks. The day before the study, animals are randomized into groups based on their body weight. That same afternoon, animals are fasted in clean cages and dosed with vehicle (40 mM Tris-HCl, pH 8.0) or test articles by subcutaneous injection. The following morning, 16 hours post the peptide injection, fasting body weights are obtained to calculate glucose doses. Blood samples are taken to measure time zero glucose. Animals are then given an oral gavage of glucose (2 g/kg). Two glucose readings via glucometers were obtained at 15, 30, 60 and 120 minutes post oral glucose. The average of two glucose readings is reported at each time point and an area under the curve is calculated. Statistics were analyzed using ANOVA with Dunnett's comparison by JMP 6; significance is denoted at p≤0.05 vs. vehicle.

The structures appear in SMILES notation. Marks after values point to notes of the source that are not given here.

For the compound `CC(C)C[C@H](NC(=O)[C@H](CC(C)C)NC(=O)[C@H](Cc1c[nH]c2ccccc12)NC(=O)[C@H](CCC(=O)O)NC(=O)[C@@H](NC(=O)[C@H](Cc1ccccc1)NC(=O)[C@H](CCC(=O)O)NC(=O)[C@H](CCCCNC(=O)COCCOCCNC(=O)COCCOCCNC(=O)CC[C@H](NC(=O)CCCCCCCCCCCCCCCCCCC(=O)O)C(=O)O)NC(=O)[C@H](C)NC(=O)[C@H](CCCCN)NC(=O)[C@H](CCCCN)NC(=O)[C@H](CCC(=O)O)NC(=O)[C@H](CC(=O)O)NC(=O)[C@H](CC(C)C)NC(=O)[C@H](Cc1ccc(O)cc1)NC(=O)[C@H](CCCCN)NC(=O)[C@H](CO)NC(=O)[C@H](Cc1ccc(O)cc1)NC(=O)[C@H](CC(=O)O)NC(=O)[C@H](CO)NC(=O)[C@@H](NC(=O)[C@H](Cc1ccccc1)NC(=O)[C@@H](NC(=O)CNC(=O)[C@H](CCC(N)=O)NC(=O)C(C)(C)NC(=O)[C@@H](N)Cc1c[nH]cn1)[C@@H](C)O)[C@@H](C)O)C(C)C)C(=O)N[C@@H](CCC(=O)O)C(=O)NCC(=O)NCC(=O)N1CCC[C@H]1C(=O)N[C@@H](CO)C(=O)N[C@@H](CO)C(=O)NCC(N)=O` [Compound 2], the “Glucose AUC (% of vehicle)” value is recorded as 70* % of vehicle in assay [1] (1 nmol/kg sc); 48* % of vehicle in assay [1] (3 nmol/kg sc); 35* % of vehicle in assay [1] (10 nmol/kg sc); 76* % of vehicle in the assay on DIO mice (C57BL/6) (1 nmol/kg sc); 50* % of vehicle in the assay with DIO mice (C57BL/6) (3 nmol/kg sc); 39* % of vehicle with DIO mice (C57BL/6) (10 nmol/kg sc). The “glucose excursion during the tolerance test” value in assay [1] (male STZ mice, 1, 3 and 10 nmol/kg) is listed as “dose dependent decrease in glucose excursion”. Also, in the assay on DIO mice (C57BL/6) (male DIO mice, 1, 3 and 10 nmol/kg), the “glucose during the tolerance test” value is on record as “dose-dependent decrease in glucose”.
